According to patent US20260042764A1, “COMPOSITIONS AND METHODS FOR INHIBITION OF KRAS” (TheRas, Inc., priority 2022, published 2026):

Key:
[1] = molecular target: T1, Avi-KRAS G12D (2-169) GTP/RAF1 RBD-3xFLAG (51-131) (Homo sapiens, UniProt P01116, G12D); experiment: Raf1-KRAS G12D-GTP disruption HTRF assay (Biological Example 3); assay type: binding
T1 construct: Avi-KRAS G12D (2-169)
Procedure, shortened: (§1)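 Compounds were titrated 10-point, 3-fold from 30 μM against preformed KRAS-GTP:RAF1 RBD (51-131) complexes at 50 nM, using KRAS 2-169 as WT, G12C, G12D or G12V. After 1 h at room temperature in Tris pH 7.5 buffer with MgCl2 and 10% DMSO, time-resolved fluorescence was read. Results are percent activity versus DMSO.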

[2] = molecular target: T2, Avi-KRAS G12C (2-169) GTP/RAF1 RBD-3xFLAG (51-131) (Homo sapiens, UniProt P01116, G12C); experiment: Raf1-KRAS G12C-GTP disruption HTRF assay (Biological Example 3); assay type: binding
T2 construct: Avi-KRAS G12C (2-169)
T2 sequence (P01116 2-169 isoform P01116-2 G12C): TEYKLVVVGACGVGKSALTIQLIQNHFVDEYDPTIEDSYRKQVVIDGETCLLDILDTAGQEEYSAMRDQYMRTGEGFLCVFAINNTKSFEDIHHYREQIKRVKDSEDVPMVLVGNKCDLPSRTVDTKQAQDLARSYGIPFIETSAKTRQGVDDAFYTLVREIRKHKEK
Procedure, shortened: as §1

[3] = molecular target: T3, Avi-KRAS WT (2-169) GTP/RAF1 RBD-3xFLAG (51-131) (Homo sapiens, UniProt P01116); experiment: Raf1-KRAS WT-GTP disruption HTRF assay (Biological Example 3); assay type: binding
T3 construct: Avi-KRAS WT (2-169)
T3 sequence (P01116 2-169 isoform P01116-2): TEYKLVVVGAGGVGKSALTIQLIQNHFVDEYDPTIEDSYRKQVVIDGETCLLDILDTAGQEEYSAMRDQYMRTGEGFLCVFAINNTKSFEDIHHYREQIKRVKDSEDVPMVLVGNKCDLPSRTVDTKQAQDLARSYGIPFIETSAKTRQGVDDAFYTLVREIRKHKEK
Procedure, shortened: as §1

SW620 cells (KRAS G12V) = experiment: Cell-based pERK HTRF assay in SW620 cell (Biological Example 4)
Procedure, shortened: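 In SW620 cells grown in RPMI with 10% FBS, a 4 h compound treatment (0.25% DMSO, 9-point curve from 1 μM) preceded lysis. Phospho-ERK levels were then read by time-resolved FRET at 615 nm emission.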

[4] = molecular target: T4, Avi-KRAS G12V (2-169) GTP/RAF1 RBD-3xFLAG (51-131) (Homo sapiens, UniProt P01116, G12V); experiment: Raf1-KRAS G12V-GTP disruption HTRF assay (Biological Example 3); assay type: binding
T4 construct: Avi-KRAS G12V (2-169)
T4 sequence (P01116 2-169 isoform P01116-2 G12V): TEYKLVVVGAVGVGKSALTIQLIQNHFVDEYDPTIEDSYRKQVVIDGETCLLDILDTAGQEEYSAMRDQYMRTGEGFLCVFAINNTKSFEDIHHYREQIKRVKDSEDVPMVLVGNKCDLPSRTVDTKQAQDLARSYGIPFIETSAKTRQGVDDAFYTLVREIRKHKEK
Procedure, shortened: as §1

GP2d cells (KRAS G12D) = experiment: Cell-based pERK HTRF assay in GP2d cell (Biological Example 2)
Procedure, shortened: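 Phospho-ERK in lysed cells was detected by HTRF using Eu cryptate and d2 antibodies, read between 4 and 24 h at room temperature. Prior to lysis, KRAS G12D GP2d cells, seeded the day before in DMEM with 10% FBS, were exposed to compounds for 60 min. Compounds were tested as 9-point half-log curves from 1 μM or 100 nM top, with 0.25% DMSO.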

[5] = Homo sapiens, SW-620, SW620 (KRAS G12V) cells

T1 sequence (P01116 2-169 isoform P01116-2 G12D): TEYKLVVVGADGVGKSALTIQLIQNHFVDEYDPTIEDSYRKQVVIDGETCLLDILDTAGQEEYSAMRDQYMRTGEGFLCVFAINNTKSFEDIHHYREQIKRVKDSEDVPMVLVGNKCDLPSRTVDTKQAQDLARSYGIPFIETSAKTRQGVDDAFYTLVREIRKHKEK

## CCN(c1nc(OCC23CCCN2CC(F)C3)nc2c(F)c(-c3ccc(F)c4sc(N)c(C#N)c34)c(C(F)(F)F)cc12)C1CCN(C(=O)c2ccc(Cl)s2)C1 (stereo not drawn) [Compound 929]
[1]; KRAS G12D, GTP-loaded
  IC50: 100 to 1000 nM
[2]; KRAS G12C, GTP-loaded
  IC50: 100 to 1000 nM
[3]; KRAS WT, GTP-loaded
  IC50: 100 to 1000 nM
SW620 cells (KRAS G12V); SW620 (KRAS G12V) cells
  IC50: < 100 nM
[4]; KRAS G12V, GTP-loaded
  IC50: 100 to 1000 nM
GP2d cells (KRAS G12D); GP2d (KRAS G12D) cells
  IC50: < 100 nM

## CCN(c1nc(OC[C@@]23CCCN2C[C@H](F)C3)nc2c(F)c(-c3ccc(F)c4sc(N)c(C#N)c34)c(C(F)(F)F)cc12)C1CCN(C(=O)OC)C1 (stereo partly drawn) [Compound 947]
[1]; KRAS G12D, GTP-loaded
  IC50: 1000 to 10000 nM
[2]; KRAS G12C, GTP-loaded
  IC50: 1000 to 10000 nM
[3]; KRAS WT, GTP-loaded
  IC50: > 10000 nM
SW620 cells (KRAS G12V); SW620 (KRAS G12V) cells
  IC50: 100 to 1000 nM
[4]; KRAS G12V, GTP-loaded
  IC50: > 10000 nM
GP2d cells (KRAS G12D); GP2d (KRAS G12D) cells
  IC50: < 100 nM

## CCN(c1nc(OC[C@@]23CCCN2C[C@H](F)C3)nc2c(F)c(-c3ccc(F)c4sc(N)c(C#N)c34)c(C(F)(F)F)cc12)[C@H]1C[C@H](C)N(C(=O)OC2CC(OC)C2)C1 (stereo partly drawn) [Compound 907]
[1]; KRAS G12D, GTP-loaded
  IC50: 100 to 1000 nM
[2]; KRAS G12C, GTP-loaded
  IC50: 100 to 1000 nM
[3]; KRAS WT, GTP-loaded
  IC50: 100 to 1000 nM
SW620 cells (KRAS G12V); [5]
  IC50: < 100 nM
[4]; KRAS G12V, GTP-loaded
  IC50: 100 to 1000 nM
GP2d cells (KRAS G12D); GP2d, GP2d (KRAS G12D) cells
  IC50: < 100 nM

## [2H][C@]1(N(CC)c2nc(OC[C@@]34CCCN3C[C@H](F)C4)nc3c(F)c(-c4ccc(F)c5sc(N)c(C#N)c45)c(C(F)(F)F)cc23)CCN(C(=O)C(C)C)C1 (atropisomer, axis not shown) [Compound 860]
[1]; KRAS G12D, GTP-loaded
  IC50: 100 to 1000 nM
[2]; KRAS G12C, GTP-loaded
  IC50: 100 to 1000 nM
[3]; KRAS WT, GTP-loaded
  IC50: 100 to 1000 nM
SW620 cells (KRAS G12V); [5]
  IC50: < 100 nM
[4]; KRAS G12V, GTP-loaded
  IC50: 100 to 1000 nM
GP2d cells (KRAS G12D); GP2d, GP2d (KRAS G12D) cells
  IC50: < 100 nM

## CCN(c1nc(OC[C@@]23CCCN2C[C@H](F)C3)nc2c(F)c(-c3ccc(F)c4sc(N)c(C#N)c34)c(C(F)(F)F)cc12)[C@H]1CCN(C(=O)C2C[C@H]2F)[C@@H]1C (stereo partly drawn) [Compound 874]
[1]; KRAS G12D, GTP-loaded
  IC50: 100 to 1000 nM
[2]; KRAS G12C, GTP-loaded
  IC50: 100 to 1000 nM
[3]; KRAS WT, GTP-loaded
  IC50: 100 to 1000 nM
SW620 cells (KRAS G12V); [5]
  IC50: < 100 nM
[4]; KRAS G12V, GTP-loaded
  IC50: 100 to 1000 nM
GP2d cells (KRAS G12D); GP2d, GP2d (KRAS G12D) cells
  IC50: < 100 nM

## CCN(c1nc(OC[C@@]23CCCN2C[C@H](F)C3)nc2c(F)c(-c3ccc(F)c4sc(N)c(C#N)c34)c(C(F)(F)F)cc12)[C@H]1CCN(c2nccs2)C1 [Compound 973]
[1]; KRAS G12D-GTP / RAF1 RBD HTRF
  IC50: 100 to 1000 nM
[2]; KRAS G12C-GTP / RAF1 RBD HTRF
  IC50: 100 to 1000 nM
[3]; KRAS WT-GTP / RAF1 RBD HTRF
  IC50: 1000 to 10000 nM
SW620 cells (KRAS G12V); Homo sapiens, SW-620, SW620 cells (KRAS G12V)
  IC50: < 100 nM
[4]; KRAS G12V-GTP / RAF1 RBD HTRF
  IC50: 100 to 1000 nM
GP2d cells (KRAS G12D); GP2d, GP2d cells (KRAS G12D)
  IC50: < 100 nM

## CCN(Cc1cccnc1)c1nc(OC[C@@]23CCCN2C[C@H](F)C3)nc2c(F)c(-c3ccc(F)c4sc(N)c(C#N)c34)c(C(F)(F)F)cc12 (atropisomer, axis not shown) [Compound 862]
[1]; KRAS G12D, GTP-loaded
  IC50: 1000 to 10000 nM
[2]; KRAS G12C, GTP-loaded
  IC50: 1000 to 10000 nM
[3]; KRAS WT, GTP-loaded
  IC50: 1000 to 10000 nM
SW620 cells (KRAS G12V); [5]
  IC50: < 100 nM
[4]; KRAS G12V, GTP-loaded
  IC50: 1000 to 10000 nM
GP2d cells (KRAS G12D); GP2d, GP2d (KRAS G12D) cells
  IC50: < 100 nM

## CCN(c1nc(OC[C@@]23CCCN2C[C@H](F)C3)nc2c(F)c(-c3ccc(F)c4sc(N)c(C#N)c34)c(C(F)(F)F)cc12)[C@H]1C[C@H](COC)N(C(=O)[C@@H]2CCO2)C1 (atropisomer, axis not shown) [Compound 853]
[1]; KRAS G12D, GTP-loaded
  IC50: 100 to 1000 nM
[2]; KRAS G12C, GTP-loaded
  IC50: 100 to 1000 nM
[3]; KRAS WT, GTP-loaded
  IC50: 100 to 1000 nM
SW620 cells (KRAS G12V); [5]
  IC50: < 100 nM
[4]; KRAS G12V, GTP-loaded
  IC50: 100 to 1000 nM
GP2d cells (KRAS G12D); GP2d, GP2d (KRAS G12D) cells
  IC50: < 100 nM

## CN(Cc1ccccc1)c1nc(OC[C@@]23CCCN2C[C@H](F)C3)nc2c(F)c(-c3ccc(F)c4sc(N)c(C#N)c34)c(C(F)(F)F)cc12 (atropisomer, axis not shown) [Compound 890]
[1]; KRAS G12D, GTP-loaded
  IC50: > 10000 nM
[2]; KRAS G12C, GTP-loaded
  IC50: > 10000 nM
[3]; KRAS WT, GTP-loaded
  IC50: > 10000 nM
SW620 cells (KRAS G12V); [5]
  IC50: 100 to 1000 nM
[4]; KRAS G12V, GTP-loaded
  IC50: > 10000 nM
GP2d cells (KRAS G12D); GP2d, GP2d (KRAS G12D) cells
  IC50: 100 to 1000 nM

## CCN(c1nc(OC[C@@]23CCCN2C[C@H](F)C3)nc2c(F)c(-c3ccc(F)c4sc(N)c(C#N)c34)c(C(F)(F)F)cc12)[C@H]1C[C@H]2[C@@H](C)OC(=O)N2C1 (atropisomer, axis not shown) [Compound 823]
[1]; KRAS G12D, GTP-loaded
  IC50: 100 to 1000 nM
[2]; KRAS G12C, GTP-loaded
  IC50: 100 to 1000 nM
[3]; KRAS WT, GTP-loaded
  IC50: 100 to 1000 nM
SW620 cells (KRAS G12V); [5]
  IC50: < 100 nM
[4]; KRAS G12V, GTP-loaded
  IC50: 100 to 1000 nM
GP2d cells (KRAS G12D); GP2d, GP2d (KRAS G12D) cells
  IC50: < 100 nM

## CCN(c1nc(OC[C@@]23CCCN2C[C@H](F)C3)nc2c(F)c(-c3ccc(F)c4sc(N)c(C#N)c34)c(C(F)(F)F)cc12)[C@H]1C[C@H]2CN(CC(F)F)C(=O)N2C1 (atropisomer, axis not shown) [Compound 940]
[1]; KRAS G12D, GTP-loaded
  IC50: 100 to 1000 nM
[2]; KRAS G12C, GTP-loaded
  IC50: 100 to 1000 nM
[3]; KRAS WT, GTP-loaded
  IC50: 100 to 1000 nM
SW620 cells (KRAS G12V); [5]
  IC50: < 100 nM
[4]; KRAS G12V, GTP-loaded
  IC50: 100 to 1000 nM
GP2d cells (KRAS G12D); GP2d, GP2d (KRAS G12D) cells
  IC50: < 100 nM
